The values that follow come from ChEMBL document CHEMBL3217663, “Evaluation of FR901464 analogues in vitro and in vivo” (Medchemcomm, 2011).

Series [1] concerns HCT-116. Description: Antiproliferative activity against human HCT116 cells assessed as growth inhibition after 24 to 72 hrs by MTS assay. The series is classed as functional. Background: Formazan colour is commonly taken as a measure of viable cells.
Series [2] can be described thus: Antiproliferative activity against NHLF assessed as growth inhibition after 24 to 72 hrs by MTS assay. The conditions noted are these: human, NHLF cells.
The nature of series [3]: Antiproliferative activity against HUVEC assessed as growth inhibition after 24 to 72 hrs by MTS assay. The series is classed as cell-based. The conditions noted are these: human, HUVEC cells.
The nature of series [4]: Antiproliferative activity against NHDF assessed as growth inhibition after 24 to 72 hrs by MTS assay. The series is classed as cell-based. The conditions noted are these: human, NHDF cells.
Series [5] can be described thus: Antiproliferative activity against HMEC assessed as growth inhibition after 24 to 72 hrs by MTS assay. The series is classed as cell-based. Particulars: human, HMEC cells.
The test system of series [6] is Mus musculus. Description: Toxicity in mouse assessed as death at 0.03 to 3 mg/kg, iv once every 4 days for 3 injections. The series is classed as organism-based. Set-up: dose 0.03-3 mg/kg, route intravenous. Particulars: in vivo, 96 h.
Series [7] deals with HCT-116. Briefly: Antitumor activity against human HCT116 cells xenografted in NCr-nu/nu mouse assessed as tumor inhibition rate measured on day 41 at 6 mg/kg, iv once every 4 days for 3 injections after 16 days of tumor cell transplantation. The series is classed as functional.
Series [8] has as its system Mus musculus. Briefly: Toxicity in mouse assessed as death at 0.5 mg/kg, iv led to the euthanization of mouse on day 9. The class given is organism-based, NCr. Details: dose 0.5 mg/kg, route intravenous. The conditions noted are these: in vivo.
Series [9] has as its system Mus musculus. Briefly: Toxicity in mouse assessed as body weight loss at 3 mg/kg, iv once every 4 days for 3 injections. The series is classed as organism-based. Details: dose 3 mg/kg, route intravenous. Particulars: in vivo, 96 h.
Series [10] is described as follows: Plasma concentration in mouse at 6 mg/kg, iv after 30 mins. The class given is ADME, organism-based. Set-up: dose 6 mg/kg, route intravenous.
The nature of series [11]: Half life in mouse serum. The class given is ADME.
Another series concerns PC-3. Description: Antitumor activity against human PC3 cells xenografted in NCr-nu/nu mouse assessed as tumor weight reduction measured on day 22 at 1 mg/kg, iv once daily for 5 injections. The class given is functional. The conditions noted are these: PC-3, 528 h. Background: A xenograft is tissue or cells of one species grown in another, often human tumour cells in immunodeficient mice.

In series [12] the test system is Mus musculus. Briefly: Toxicity in mouse assessed as body weight loss at 1 mg/kg, iv once every 4 days for 3 injections. The conditions noted are these: in vivo, 96 h. Details: dose 1 mg/kg, route intravenous. The class given is organism-based.
In series [13] the test system is Mus musculus. Description: Toxicity in mouse assessed as death at >= 1.5 mg/kg, iv compound treated once daily for 5 consecutive days. The series is classed as organism-based. Details: dose 1.5 mg/kg, route intravenous. Particulars: in vivo.
The nature of series [14]: Toxicity in mouse assessed as tolerated dose compound treated once daily for 5 consecutive days. The series is classed as organism-based. The conditions noted are these: in vivo.
In series [15] the test system is HCT-116. Briefly: Antitumor activity against human HCT116 cells xenografted in NCr-nu/nu mouse assessed as tumor weight reduction at 1.5 to 3 mg/kg, iv once every 4 days for 3 injections after 16 days of tumor cell transplantation. The series is classed as functional, organism-based.
In series [16] the test system is Mus musculus. Briefly: Toxicity in mouse assessed as body weight loss at 0.5 mg/kg, iv led to the euthanization of mouse on day 9. Details: dose 0.5 mg/kg, route intravenous. The class given is organism-based. The conditions noted are these: in vivo.
Another series concerns P388. Briefly: Antiproliferative activity against mouse P388 cells assessed as growth inhibition after 24 to 72 hrs by MTS assay. The class given is functional.
The test system of a further series is A549. Description: Antiproliferative activity against human A549 cells assessed as growth inhibition after 24 to 72 hrs by MTS assay. The class given is functional.
Another series relates to MCF7. Briefly: Antiproliferative activity against human MCF7 cells assessed as growth inhibition after 24 to 72 hrs by MTS assay. The series is classed as functional.
A short description of series [17]: Therapeutic index, ratio of GI50 for human HCT116 cells to GI50 for NHLF. The class given is cell-based, HCT-116. Particulars: HCT116 cells and NHLF cells, read-out: RatioGI50.
Another series concerns MDA-MB-231. Description: Antiproliferative activity against human MDA-MB-231 cells assessed as growth inhibition after 24 to 72 hrs by MTS assay. The series is classed as functional.
The test system of series [18] is HCT-116. Description: Antitumor activity against human HCT116 cells xenografted in NCr-nu/nu mouse assessed as tumor weight reduction at 6 mg/kg, iv once every 4 days for 3 injections after 16 days of tumor cell transplantation. The series is classed as functional.
The nature of series [19]: Therapeutic index, ratio of GI50 for human HCT116 cells to GI50 for NHDF. The series is classed as cell-based, HCT-116. The conditions noted are these: HCT116 cells and NHDF cells, read-out: RatioGI50.
A short description of series [20]: Therapeutic index, ratio of GI50 for human HCT116 cells to GI50 for HMEC. The class given is cell-based, HCT-116. Particulars: HCT116 cells and HMEC cells, read-out: RatioGI50.
A short description of series [21]: Therapeutic index, ratio of GI50 for human HCT116 cells to GI50 for HUVEC. The class given is cell-based, HCT-116. The conditions noted are these: HCT116 cells and HUVEC cells, read-out: RatioGI50.
For series [22], the system named is Mus musculus. Briefly: Toxicity in mouse assessed as body weight loss at 0.03 to 3 mg/kg, iv once every 4 days for 3 injections. The class given is organism-based. Set-up: dose 0.03-3 mg/kg, route intravenous. The conditions noted are these: in vivo, 96 h.
Series [23] concerns HCT-116. Description: Antitumor activity against human HCT116 cells xenografted in NCr-nu/nu mouse assessed as tumor inhibition rate measured on day 41and 44 at 15 mg/kg, iv once daily for 5 injections after 16 days of tumor cell transplantation. The series is classed as functional. Particulars: HCT-116, 384 h.
Series [24] in a line: Plasma concentration in mouse at 6 mg/kg, iv upto 4 hrs. The series is classed as ADME, organism-based. Details: dose 6 mg/kg, route intravenous.

SMILES strings stand for the structures. Active and inactive are the calls of the source. The calls are words filed in the database; no cut-off is given here. A value given as a limit tells only on which side of the number the result lay.

In the case of `COc1cccc2c1C(=O)c1c(O)c3c(c(O)c1C2=O)C[C@@](O)(C(=O)CO)C[C@@H]3O[C@H]1C[C@H](N)[C@H](O)[C@H](C)O1` [DOXORUBICIN], the GI50 (commonly the concentration at which growth is held to half of that of the control) was 70 nM with HCT-116 [1]; 223 nM in [2]; 109 nM in series [3]; 462 nM in series [4]; 276 nM in [5].

Regarding `CC(/C=C/[C@H]1OC(C)(C)C[C@@]2(CO2)[C@@H]1O)=C\C[C@@H]1O[C@H](C)[C@H](NC(=O)/C=C\[C@H](C)OC(=O)N2CCOCC2)C[C@@H]1C`, the Activity result in the series with Mus musculus [6] is “Non-toxic”; in the series on Mus musculus [8], “Toxic”; in the series on Mus musculus [9], 11%; in the series with Mus musculus [12] it was 10%; in the series with Mus musculus [13], “Toxic”; in the series on Mus musculus [16] it was 6%. For the same compound, in the series on HCT-116 [7], the inhibition in vivo (usually the drop in the measured response relative to a control, in per cent) at 6 mg/kg amounted to 41%. In series [10], this compound returned a concentration at 0.5 h below 10 ng/mL. For the same compound, in [11], the half-life (in general, how long it takes for the measured level to halve) is 13 h. Moreover, the inhibition in vivo at 1 mg/kg with PC-3 was found to be 26%. Further, in series [14], the MTD (usually the largest dose that counted as tolerated) at 5 days was 0.5 mg/kg. For the same compound, the result in the series with HCT-116 [15] was inactive.

Regarding `CC(=O)O[C@@H](C)/C=C\C(=O)N[C@@H]1C[C@H](C)[C@H](C/C=C(C)/C=C/[C@H]2O[C@](C)(O)C[C@@]3(CO3)[C@@H]2O)O[C@@H]1C`, the GI50 in the series with P388, with HCT-116 [1], in the series on A549 and in the series on MCF7 was 1 nM each time.

Consider `CC(=O)O[C@@H](C)/C=C\C(=O)N[C@@H]1C[C@H](C)[C@H](C/C=C(C)/C=C/[C@H]2OC(C)(C)C[C@@]3(CO3)[C@@H]2O)O[C@@H]1C`, for which the Activity result in the series with Mus musculus [6] and in the series with Mus musculus [22] was “Non-toxic” each time. Moreover, the selectivity ratio was determined as 2.7 in series [17], 6 in series [19], 1.6 in [20] and 1 in [21]. The 50% growth inhibitory concentration (GI50) in the series with MDA-MB-231 turned out to be 0.07 nM; in the series on HCT-116 [1], 0.07 nM; in series [2], 0.91 nM; in series [3], 0.06 nM; in the series on MCF7 it was 0.02 nM; in series [4], 0.44 nM. Also, the GI50 in [5] came out at 0.11 nM. This compound had a half-life in series [11] of 2 h. Besides, in the series with HCT-116 [18], the inhibition in vivo at 6 mg/kg came out at 24%. Moreover, the outcome with HCT-116 [15] was inactive.

Consider `CC(=O)O[C@H]1C(=O)[C@@]2(C)[C@H]([C@H](OC(=O)c3ccccc3)[C@]3(O)C[C@H](OC(=O)[C@H](O)[C@@H](NC(=O)c4ccccc4)c4ccccc4)C(C)=C1C3(C)C)[C@]1(OC(C)=O)CO[C@@H]1C[C@@H]2O` [PACLITAXEL], for which the inhibition in vivo at 15 mg/kg in the series with HCT-116 [23] was found to be 81%.

`CO[C@@H]1[C@@H](/C=C/C(C)=C/C[C@@H]2O[C@H](C)[C@H](NC(=O)/C=C\[C@H](C)OC(=O)N3CCOCC3)C[C@@H]2C)OC(C)(C)C[C@@]12CO2`: the selectivity ratio came out at 4.6 in series [17], 15 in [19], 3.5 in series [20] and 1.5 in series [21]. Moreover, the GI50 in the series with MDA-MB-231 was 1.1 nM; in the series on HCT-116 [1] it was 1.4 nM; in series [2], 12 nM; in series [3] it was 4 nM; with MCF7, 0.4 nM; in [4] it was 39 nM. The GI50 in [5] was 9 nM. The concentration at 4 h in series [24] was below 10 ng/mL.
